Source: PubChem BioAssay (NCI)
Values joined by “and” are separate entries in the source; they are usually repeats but may differ in a detail not shown here. Equal entries are not always repeated.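 Method: 48-hour compound exposure of cells in 96-well plates, five concentrations, linear interpolation of endpoints. At the GI50, growth is halved. At the TGI there is no net growth.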

How the values were obtained:
Assay in all cases: NCI-60 cell line screen, 48 h
DU-145 prostate = tested on: DU-145 prostate
SNB-19 CNS = tested on: SNB-19 CNS
NCI-H23 lung = tested on: NCI-H23 lung
MDA-MB-435 = tested on: MDA-MB-435
SK-MEL-5 melanoma = tested on: SK-MEL-5 melanoma
SR leukemia = tested on: SR leukemia
SF-268 CNS = tested on: SF-268 CNS
TK-10 renal = tested on: TK-10 renal
NCI-H226 lung = tested on: NCI-H226 lung
M14 melanoma = tested on: M14 melanoma
PC-3 prostate = tested on: PC-3 prostate
NCI-H522 lung = tested on: NCI-H522 lung
HOP-62 NSCLC = tested on: HOP-62 NSCLC
A498 renal = tested on: A498 renal
A549 NSCLC = tested on: A549 NSCLC
LOX IMVI melanoma = tested on: LOX IMVI melanoma
CAKI-1 renal = tested on: CAKI-1 renal
UACC-257 melanoma = tested on: UACC-257 melanoma
IGROV1 ovarian = tested on: IGROV1 ovarian
SF-539 CNS = tested on: SF-539 CNS
K-562 leukemia = tested on: K-562 leukemia
SF-295 CNS = tested on: SF-295 CNS
KM12 colon = tested on: KM12 colon
SN12C renal = tested on: SN12C renal
OVCAR-5 ovarian = tested on: OVCAR-5 ovarian
MDA-MB-231 breast = tested on: MDA-MB-231 breast
HCT-116 colon = tested on: HCT-116 colon
T-47D breast = tested on: T-47D breast
HOP-92 NSCLC = tested on: HOP-92 NSCLC
RPMI-8226 leukemia = tested on: RPMI-8226 leukemia
NCI-H460 lung = tested on: NCI-H460 lung
UO-31 renal = tested on: UO-31 renal
HCT-15 colon = tested on: HCT-15 colon
OVCAR-4 ovarian = tested on: OVCAR-4 ovarian
EKVX NSCLC = tested on: EKVX NSCLC
UACC-62 melanoma = tested on: UACC-62 melanoma
ACHN renal = tested on: ACHN renal
HL-60(TB) leukemia = tested on: HL-60(TB) leukemia
RXF 393 renal = tested on: RXF 393 renal
SW-620 colon = tested on: SW-620 colon
MCF7 breast = tested on: MCF7 breast
HCC-2998 colon = tested on: HCC-2998 colon
MALME-3M melanoma = tested on: MALME-3M melanoma
NCI/ADR-RES ovarian = tested on: NCI/ADR-RES ovarian
SK-OV-3 ovarian = tested on: SK-OV-3 ovarian
BT-549 breast = tested on: BT-549 breast
OVCAR-8 ovarian = tested on: OVCAR-8 ovarian
CCRF-CEM leukemia = tested on: CCRF-CEM leukemia
COLO 205 colon = tested on: COLO 205 colon
OVCAR-3 ovarian = tested on: OVCAR-3 ovarian
MOLT-4 leukemia = tested on: MOLT-4 leukemia
HT29 colon = tested on: HT29 colon
U251 CNS = tested on: U251 CNS
SK-MEL-28 melanoma = tested on: SK-MEL-28 melanoma
SK-MEL-2 melanoma = tested on: SK-MEL-2 melanoma
786-0 renal = tested on: 786-0 renal
HS 578T breast = tested on: HS 578T breast
SNB-75 CNS = tested on: SNB-75 CNS

O=C1C2=C(C(=O)c3ccccc31)C(O)(S(=O)(=O)O)C(O)(S(=O)(=O)O)C1N=CC=CC21 (stereo unspecified)
GI50 (DU-145 prostate): 6.09 µM and 5.9 µM
TGI (DU-145 prostate): 44 µM and 22.2 µM
GI50 (SNB-19 CNS): 4.28 µM and 5.5 µM
TGI (SNB-19 CNS): 44.4 µM and > 100 µM
GI50 (NCI-H23 lung): 3.87 µM and 3.49 µM
TGI (NCI-H23 lung): 27.6 µM and 18.8 µM
GI50 (MDA-MB-435): 4.56 µM and 3.56 µM
TGI (MDA-MB-435): 80.5 µM and 24.8 µM
GI50 (SK-MEL-5 melanoma): 3.96 µM and 3.63 µM
TGI (SK-MEL-5 melanoma): 16.3 µM and 14.5 µM
GI50 (SR leukemia): 4.58 µM and 1.14 µM
TGI (SR leukemia): > 100 µM and 50.1 µM
GI50 (SF-268 CNS): 3.93 µM and 5.96 µM
TGI (SF-268 CNS): 41.4 µM and 32.1 µM
GI50 (TK-10 renal): 6.25 µM and 9.35 µM
TGI (TK-10 renal): 68.3 µM and 28.8 µM
GI50 (NCI-H226 lung): 9.22 µM and 11.9 µM
TGI (NCI-H226 lung): 69.2 µM and 27.7 µM
GI50 (M14 melanoma): 4.83 µM and 3.2 µM
TGI (M14 melanoma): 32.1 µM and 29.4 µM
GI50 (PC-3 prostate): 4.69 µM and 3.2 µM
TGI (PC-3 prostate): > 100 µM and 29.6 µM
GI50 (NCI-H522 lung): 4.8 µM and 2.13 µM
TGI (NCI-H522 lung): 39.6 µM and 5.71 µM
GI50 (HOP-62 NSCLC): 5.36 µM and 3.03 µM
TGI (HOP-62 NSCLC): 31.8 µM and 19.2 µM
GI50 (A498 renal): 10.1 µM and 3.3 µM
TGI (A498 renal): 40.1 µM and 12.7 µM
GI50 (A549 NSCLC): 4.75 µM and 4.09 µM
TGI (A549 NSCLC): 37.1 µM and 16.1 µM
GI50 (LOX IMVI melanoma): 3.1 µM and 2.84 µM
TGI (LOX IMVI melanoma): 54.9 µM and 20.3 µM
GI50 (CAKI-1 renal): 1.72 µM and 0.315 µM
TGI (CAKI-1 renal): 9.4 µM and 1.87 µM
GI50 (UACC-257 melanoma): 10.8 µM
TGI (UACC-257 melanoma): 47.7 µM
GI50 (IGROV1 ovarian): 2.19 µM
TGI (IGROV1 ovarian): 9.5 µM
GI50 (SF-539 CNS): 4.01 µM and 3.89 µM
TGI (SF-539 CNS): 19.9 µM and 18.1 µM
GI50 (K-562 leukemia): 3.71 µM
TGI (K-562 leukemia): > 100 µM
GI50 (SF-295 CNS): 2.57 µM and 1.13 µM
TGI (SF-295 CNS): 6.68 µM and 8.19 µM
GI50 (KM12 colon): 4.33 µM and 4.8 µM
TGI (KM12 colon): 67.4 µM and 20 µM
GI50 (SN12C renal): 4.84 µM and 3.25 µM
TGI (SN12C renal): > 100 µM and 14.1 µM
GI50 (OVCAR-5 ovarian): 8.7 µM and 9.31 µM
TGI (OVCAR-5 ovarian): > 100 µM and 45.7 µM
GI50 (MDA-MB-231 breast): 14.5 µM and 4.51 µM
TGI (MDA-MB-231 breast): > 100 µM and 46.6 µM
GI50 (HCT-116 colon): 3.34 µM and 2.81 µM
TGI (HCT-116 colon): 20.1 µM and 12.7 µM
GI50 (T-47D breast): 3.97 µM and 4.7 µM
TGI (T-47D breast): 28.5 µM and 30.7 µM
GI50 (HOP-92 NSCLC): 2.96 µM and 1.85 µM
TGI (HOP-92 NSCLC): 26.9 µM and 6.81 µM
GI50 (RPMI-8226 leukemia): 4.99 µM and 3.99 µM
TGI (RPMI-8226 leukemia): > 100 µM and 27.6 µM
GI50 (NCI-H460 lung): 2.84 µM and 1.39 µM
TGI (NCI-H460 lung): 11.7 µM and 6.25 µM
GI50 (UO-31 renal): 2.46 µM and 2.19 µM
TGI (UO-31 renal): 27 µM and 13 µM
GI50 (HCT-15 colon): 3.47 µM and 2.15 µM
TGI (HCT-15 colon): > 100 µM
GI50 (OVCAR-4 ovarian): 3.66 µM and 2.99 µM
TGI (OVCAR-4 ovarian): > 100 µM
GI50 (EKVX NSCLC): 3.32 µM and 2.71 µM
TGI (EKVX NSCLC): 31.9 µM and 14.5 µM
GI50 (UACC-62 melanoma): 6.17 µM and 4.52 µM
TGI (UACC-62 melanoma): 19.4 µM and 18.7 µM
GI50 (ACHN renal): 4.47 µM and 3.83 µM
TGI (ACHN renal): 39.2 µM and 19.3 µM
GI50 (HL-60(TB) leukemia): 7.83 µM and 4.13 µM
TGI (HL-60(TB) leukemia): > 100 µM and 20.6 µM
GI50 (RXF 393 renal): 5.73 µM and 2.98 µM
TGI (RXF 393 renal): 28.6 µM and 11.9 µM
GI50 (SW-620 colon): 3.65 µM and 4.29 µM
TGI (SW-620 colon): 96.9 µM and 17.2 µM
GI50 (MCF7 breast): 4.9 µM and 3.26 µM
TGI (MCF7 breast): 29.1 µM and 27.2 µM
GI50 (HCC-2998 colon): 4.63 µM and 3.93 µM
TGI (HCC-2998 colon): 60.4 µM and 17.5 µM
GI50 (MALME-3M melanoma): 10.3 µM and 14.8 µM
TGI (MALME-3M melanoma): 36.7 µM and 39 µM
GI50 (NCI/ADR-RES ovarian): 2.45 µM and 1.27 µM
TGI (NCI/ADR-RES ovarian): 18.6 µM and 23.7 µM
GI50 (SK-OV-3 ovarian): 4.61 µM and 8.35 µM
TGI (SK-OV-3 ovarian): 38.3 µM and 32.4 µM
GI50 (BT-549 breast): 5.88 µM and 5.04 µM
TGI (BT-549 breast): 39.9 µM and 25.8 µM
GI50 (OVCAR-8 ovarian): 3.46 µM and 4.23 µM
TGI (OVCAR-8 ovarian): > 100 µM and 18.6 µM
GI50 (CCRF-CEM leukemia): 6.47 µM
TGI (CCRF-CEM leukemia): > 100 µM
GI50 (COLO 205 colon): 7.08 µM and 4.11 µM
TGI (COLO 205 colon): 29.9 µM and 61.5 µM
GI50 (OVCAR-3 ovarian): 2.33 µM and 2.86 µM
TGI (OVCAR-3 ovarian): 6.78 µM and 11.7 µM
GI50 (MOLT-4 leukemia): 7.06 µM and 4.38 µM
TGI (MOLT-4 leukemia): > 100 µM and 34.4 µM
GI50 (HT29 colon): 5.84 µM and 4.51 µM
TGI (HT29 colon): > 100 µM and 20.8 µM
GI50 (U251 CNS): 3.85 µM and 2.69 µM
TGI (U251 CNS): 28.8 µM and 17.8 µM
GI50 (SK-MEL-28 melanoma): 17 µM and 12.1 µM
TGI (SK-MEL-28 melanoma): 96.1 µM and 28.6 µM
GI50 (SK-MEL-2 melanoma): 10.1 µM and 9.93 µM
TGI (SK-MEL-2 melanoma): 70.3 µM and 33.1 µM
GI50 (786-0 renal): 5.03 µM and 4.29 µM
TGI (786-0 renal): 25 µM and 17.4 µM
GI50 (HS 578T breast): 4.93 µM and 3.71 µM
TGI (HS 578T breast): 75.7 µM and 29.8 µM
GI50 (SNB-75 CNS): 4.08 µM and 3.17 µM
TGI (SNB-75 CNS): 41.9 µM and 19.6 µM
